Among the data in patent publication US10414774B2, “Compound useful for altering the levels of bile acids for the treatment of diabetes and cardiometabolc disease” (Merck Sharp & Dohme Corp., priority 2016, dated 2019) are IC50 values, retold here.

For this test, the target named is T1, Human CYP8B1 (Homo sapiens, UniProt Q9UNU6).
T1 sequence (Q9UNU6 1-501): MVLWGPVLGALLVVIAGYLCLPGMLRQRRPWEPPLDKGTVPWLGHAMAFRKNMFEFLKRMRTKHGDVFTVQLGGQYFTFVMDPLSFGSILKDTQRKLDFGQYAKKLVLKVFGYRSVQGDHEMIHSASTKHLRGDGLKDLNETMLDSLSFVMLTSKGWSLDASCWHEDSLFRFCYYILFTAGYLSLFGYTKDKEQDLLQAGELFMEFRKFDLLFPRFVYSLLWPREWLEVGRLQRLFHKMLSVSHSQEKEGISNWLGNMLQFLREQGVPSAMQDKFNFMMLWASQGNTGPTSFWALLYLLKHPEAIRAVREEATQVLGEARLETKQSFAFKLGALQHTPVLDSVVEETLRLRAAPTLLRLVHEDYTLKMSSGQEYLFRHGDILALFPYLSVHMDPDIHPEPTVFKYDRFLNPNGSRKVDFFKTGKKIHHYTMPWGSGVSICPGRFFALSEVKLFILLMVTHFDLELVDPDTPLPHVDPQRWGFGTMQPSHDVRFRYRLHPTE
The test can be described thus: Human CYP8B1 Liver Microsome Assay. The conditions noted are these: Human CYP8B1 IC50, human liver microsomes; substrate 7a-hydroxy-4-cholesten-3-one, NADPH; RapidFire MS detection of 7α,12α-dihydroxy-4-cholesten-3-one.
On to `Cc1nc2ccc(Cl)cc2c(N2CC[C@H](C(=O)N3CCc4oncc4C3)[C@H](C)C2)c1C#N` [Example 97, 6-chloro-4-[(3S,4S)-4-(6,7-dihydroisoxazolo[4,5-c]pyridin-5(4H)-ylcarbonyl)-3-methylpiperidin-1-yl]-2-methylquinoline-3-carbonitrile], for which it took 4.2 nM to reach half-maximal inhibition (IC50).

`N#Cc1cnc2cc(Br)ccc2c1N1CCC(C(=O)N2CCn3c(nnc3C(F)(F)F)C2)CC1` [Example 40, 7-bromo-4-(4-{[3-(trifluoromethyl)-5,6-dihydro[1,2,4]triazolo[4,3-a]pyrazin-7(8H)-yl]carbonyl}piperidin-1-yl)quinoline-3-carbonitrile] displayed an IC50 of 12 nM.

In the case of `C[C@@H]1CN(c2c(C#N)c[n+]([O-])c3cc(OCC4CC4)ccc23)CC[C@@H]1C(=O)N1CCn2c(nnc2C(F)(F)F)C1` [Example 71, 7-(cyclopropylmethoxy)-4-[(3S,4S)-3-methyl-4-{[3-(trifluoromethyl)-5,6-dihydro[1,2,4]triazolo[4,3-a]pyrazin-7(8H)-yl]carbonyl}piperidin-1-yl]quinoline-3-carbonitrile 1-oxide], the IC50 stood at 0.54 nM.

Regarding `C[C@@H]1CN(c2c(C#N)cnc3c(F)cc(C4CC4)cc23)CC[C@@H]1C(=O)N1CCn2c(nnc2C(F)(F)F)C1` [Example 86, 6-cyclopropyl-8-fluoro-4-((3S,4S)-3-methyl-4-(3-(trifluoromethyl)-5,6,7,8-tetrahydro-[1,2,4]triazolo[4,3-a]pyrazine-7-carbonyl)piperidin-1-yl)quinoline-3-carbonitrile], 0.4 nM corresponded to half-maximal inhibition (IC50).

As to `N#Cc1cnc2ccc(Cl)cc2c1N1CCC(C(=O)N2CCc3cn[nH]c3C2)CC1` [Example 108, 6-chloro-4-[4-(1,4,5,7-tetrahydro-6H-pyrazolo[3,4-c]pyridin-6-ylcarbonyl)piperidin-1-yl]quinoline-3-carbonitrile], the IC50 amounted to 142 nM.

In turn, `COc1ccc2ncc(C#N)c(N3CC[C@H](C(=O)N4CCn5c(nnc5C(F)(F)F)C4)[C@H](C)C3)c2c1` [Example 9, 6-methoxy-4-[(3S,4S)-3-methyl-4-{[3-(trifluoromethyl)-5,6-dihydro[1,2,4]triazolo[4,3-a]pyrazin-7(8H)-yl]carbonyl}piperidin-1-yl]quinoline-3-carbonitrile] showed a 50% inhibitory concentration (IC50) of 0.51 nM.

`C[C@@H]1CN(c2c(C#N)cnc3c(F)c(OC(F)F)ccc23)CC[C@@H]1C(=O)N1CCn2c(nnc2C(F)(F)F)C1` [Example 36, 7-(difluoromethoxy)-8-fluoro-4-[(3S,4S)-3-methyl-4-{[3-(trifluoromethyl)-5,6-dihdyro[1,2,4]triazolo[4,3-a]pyrazin-7(8H)-yl]carbonyl}piperidin-1-yl]quinoline-3-carbonitrile] yielded an IC50 of 0.4 nM.

In turn, `C[C@@H]1CN(c2c(C#N)cnc3c(F)cc(F)cc23)CC[C@@H]1C(=O)N1CCn2c(nnc2C(F)(F)F)C1` [Example 26, 6,8-difluoro-4-[(3S,4S)-3-methyl-4-{[3-(trifluoromethyl)-5,6-dihydro[1,2,4]triazolo[4,3-a]pyrazin-7(8H)-yl]carbonyl}piperidin-1-yl]quinoline-3-carbonitrile] yielded an IC50 of 0.49 nM.

On to `CC1CN(c2c(C#N)cnc3ccc(C(F)(F)F)cc23)CCC1C(=O)N1CCn2c(nnc2C(F)(F)F)C1` (stereo not drawn) [Example 119, 4-(3-methyl-4-{[3-(trifluoromethyl)-5,6-dihydro[1,2,4]triazolo[4,3-a]pyrazin-7(8H)-yl]carbonyl}piperidin-1-yl)-6-(trifluoromethyl)quinoline-3-carbonitrile], for which 1.2 nM corresponded to half-maximal inhibition (IC50).

`COc1cccc2nc(C)c(C#N)c(N3CC[C@H](C(=O)N4CCn5c(nnc5C(F)(F)F)C4)[C@H](C)C3)c12` [Example 35, 5-methoxy-2-methyl-4-[(3S,4S)-3-methyl-4-{[3-(trifluoromethyl)-5,6-dihydro[1,2,4]triazolo[4,3-a]pyrazin-7(8H)-yl]carbonyl}piperidin-1-yl]quinoline-3-carbonitrile]: the midpoint of inhibition, the IC50, lay at 1.4 nM.

On to `C[C@@H]1CN(c2c(C#N)cnc3cc(F)ccc23)CC[C@@H]1C(=O)N1CCn2c(nnc2C(F)(F)F)C1` [Example 6, 7-fluoro-4-[(3S,4S)-3-methyl-4-{[3-(trifluoromethyl)-5,6-dihydro[1,2,4]triazolo[4,3-a]pyrazin-7(8H)-yl]carbonyl}piperidin-1-yl]quinoline-3-carbonitrile], for which inhibition was half-maximal at 2.1 nM (IC50).

Take `C[C@@H]1CN(c2c(C#N)cnc3c(F)cccc23)CC[C@@H]1C(=O)N1CCn2c(nnc2C(F)(F)F)C1` [Example 12, 8-fluoro-4-[(3S,4S)-3-methyl-4-{[3-(trifluoromethyl)-5,6-dihydro[1,2,4]triazolo[4,3-a]pyrazin-7(8H)-yl]carbonyl}piperidin-1-yl]quinoline-3-carbonitrile]: the IC50 turned out to be 1.1 nM.

Compound `C[C@@H]1CN(c2c(C#N)cnc3cc(OC(F)F)ccc23)CC[C@@H]1C(=O)N1CCn2c(nnc2C(F)(F)F)C1` [Example 62, 7-(difluoromethoxy)-4-[(3S,4S)-3-methyl-4-{[3-(trifluoromethyl)-5,6-dihydro[1,2,4]triazolo[4,3-a]pyrazin-7(8H)-yl]carbonyl}piperidin-1-yl]quinoline-3-carbonitrile] came in with an IC50 of 1.1 nM.

`CC(C)Oc1ccc2c(N3CC[C@H](C(=O)N4CCn5c(nnc5C(F)(F)F)C4)[C@H](C)C3)c(C#N)cnc2c1` [Example 64, 4-[(3S,4S)-3-methyl-4-{[3-(trifluoromethyl)-5,6-dihydro[1,2,4]triazolo[4,3-a]pyrazin-7(8H)-yl]carbonyl}piperidin-1-yl]-7-(propan-2-yloxy)quinoline-3-carbonitrile]: the IC50 is 0.3 nM.

`CC1CN(c2c(C#N)c(C(F)F)nc3ccc(Cl)cc23)CCC1C(=O)N1CCn2c(nnc2C(F)(F)F)C1` (stereo not drawn) [Example 57, 6-chloro-2-(difluoromethyl)-4-(3-methyl-4-{[3-(trifluoromethyl)-5,6-dihydro[1,2,4]triazolo[4,3-a]pyrazin-7(8H)-yl]carbonyl}piperidin-1-yl)quinoline-3-carbonitrile]: the IC50 was 69 nM.

Take `Cc1nc2c(F)cc(F)cc2c(N2CCC(C(=O)N3CCn4c(nnc4C(F)(F)F)C3)CC2)c1C#N` [Example 49, 6,8-difluoro-2-methyl-4-(4-(3-(trifluoromethyl)-5,6,7,8-tetrahydro-[1,2,4]triazolo[4,3-a]pyrazine-7-carbonyl)piperidin-1-yl)quinoline-3-carbonitrile]: the IC50 stood at 1730 nM.

In turn, `CC[C@H]1CN(c2c(C#N)cnc3c(F)c(OC)ccc23)CC[C@H]1C(=O)N1CCn2c(nnc2C(F)(F)F)C1` [Example 74a, 4-[(3R,4R)-3-ethyl-4-{[3-(trifluoromethyl)-5,6-dihydro[1,2,4]triazolo[4,3-a]pyrazin-7(8H)-yl]carbonyl}piperidin-1-yl]-8-fluoro-7-methoxyquinoline-3-carbonitrile] came in with an IC50 of 343 nM.

`C[C@@H]1CN(c2c(C#N)cnc3cc(C4CC4)ccc23)CC[C@@H]1C(=O)N1CCn2c(nnc2C(F)(F)F)C1` [Example 63] had an IC50 of 1.1 nM.

For `CO[C@H]1CN(c2c(C#N)cnc3ccc(Cl)cc23)CC[C@H]1C(=O)N1CCn2c(nnc2C(F)(F)F)C1` [Example 72c, 6-chloro-4-[(3R,4R)-3-methoxy-4-{[3-(trifluoromethyl)-5,6-dihydro[1,2,4]triazolo[4,3-a]pyrazin-7(8H)-yl]carbonyl}piperidin-1-yl]quinoline-3-carbonitrile], the midpoint of inhibition, the IC50, lay at 2210 nM.

Take `C[C@@H]1CN(c2c(C#N)cnc3cnc(F)cc23)CC[C@@H]1C(=O)N1CCn2c(nnc2C(F)(F)F)C1` [Example 31, 6-fluoro-4-[(3S,4S)-3-methyl-4-{[3-(trifluoromethyl)-5,6-dihydro[1,2,4]triazolo[4,3-a]pyrazin-7(8H)-yl]carbonyl}piperidin-1-yl]-1,7-naphthyridine-3-carbonitrile]: it took 2.6 nM to reach half-maximal inhibition (IC50).

Compound `C[C@@H]1CN(c2c(C#N)cnc3cc(OC(F)(F)F)ccc23)CC[C@@H]1C(=O)N1CCn2c(nnc2C(F)(F)F)C1` [Example 22, 4-[(3S,4S)-3-methyl-4-{[3-(trifluoromethyl)-5,6-dihydro[1,2,4]triazolo[4,3-a]pyrazin-7(8H)-yl]carbonyl}piperidin-1-yl]-7-(trifluoromethoxy)quinoline-3-carbonitrile] yielded an IC50 of 0.22 nM.

The compound `CO[C@H]1CN(c2c(C#N)cnc3ccc(Cl)cc23)CCC1C(=O)N1CCn2c(nnc2C(F)(F)F)C1` (stereo in doubt) [Example 72d, 6-chloro-4-[(3R,4R)-3-methoxy-4-{[3-(trifluoromethyl)-5,6-dihydro[1,2,4]triazolo[4,3-a]pyrazin-7(8H)-yl]carbonyl}piperidin-1-yl]quinoline-3-carbonitrile] had an IC50 of 6140 nM.

Take `Cc1nc2ccc(C(F)F)cc2c(N2CCC(C(=O)N3CCn4c(nnc4C(F)(F)F)C3)CC2)c1C#N` [Example 55, 6-(difluoromethyl)-2-methyl-4-(4-(3-(trifluoromethyl)-5,6,7,8-tetrahydro-[1,2,4]triazolo[4,3-a]pyrazine-7-carbonyl)piperidin-1-yl)quinoline-3-carbonitrile]: the IC50 was 78 nM.

On to `C[C@@H]1CN(c2c(C#N)cnc3c(F)c(Cl)c(F)cc23)CC[C@@H]1C(=O)N1CCn2c(nnc2C(F)(F)F)C1` [Example 15, 7-chloro-6,8-difluoro-4-[(3S,4S)-3-methyl-4-{[3-(trifluoromethyl)-5,6-dihdyro[1,2,4]triazolo[4,3-a]pyrazin-7(8H)-yl]carobnyl}piperidin-1-yl]quinoline-3-carbonitrile], for which the IC50 is 1 nM.
